Measured values published in publication PMC10299677, “Fluorinated Benzofuran and Dihydrobenzofuran as Anti-Inflammatory and Potential Anticancer Agents” (International Journal of Molecular Sciences, 2023).

Key:
PARP-1 = experiment: Cleaved PARP-1 protein in HCT116 (Western blot); format: cell-based, human; conditions: 10, 25 and 50 µM, 72 h
Protocol: (§1) Macrophages were incubated with the compounds for 30 min prior to the addition of 10 ng/mL LPS for 24 h. Protein levels for COX-2 and NOS2 were detected in LPS-stimulated macrophages. As previously described, 10 µg of total protein was assessed. The primary antibodies were developed and characterized as previously described: for COX-2, mouse monoclonal antibody anti-COX-2 (clone COX-214, 1/5000); for NOS2, rabbit polyclonal antibody anti-NOS2 (dilution1/2000 [33]). Antibodies anti-phospho-NF-κB (3033S), phospho-IκBα (9246S), and total IκBα (4814S) were from Cell Signaling Technologies (Danvers, MA, USA). Total NF-κB C-20 (sc-372) was from Santa Cruz Biotechnologies (Dallas, TX, USA), and mouse β-actin (dilution 1/10,000) (Sigma-Aldrich, A5441). Clarity™ western ECL substrate (Bio-Rad Laboratories 10-5061) was used according to the manufacturer’s instructions to reveal positive bands visualized using Bio-Rad ChemiDoc. For Bcl-2 and cleaved PARP-1, HCT116 cells were plated in 6-well plates (200,000 cells per well) for 24 h, and treated with compounds 1 and 2 at 10, 25, and 50 µM for 72 h. Supernatants and cells were collected and lysed using RIPA lysis buffer containing inhibitors of protease. […]

CCL2 mRNA = experiment: LPS-dependent CCL2 mRNA in THP-1-derived macrophages (RT-PCR); format: cell-based, human; conditions: 50 µM, 10 ng/ml LPS 6 h
Protocol: F i g u re S3: Eff ect of benzofuran compounds on the lev els of LP S -dependent mRNA of CCL2 and IL-6 in THP-1 –deriv ed macrophages. Human-monoc yti c cell l ine-THP-1 wer e treat ed with PMA (25 nM for 48 hours) th en in cub ated with 50 μM compounds for 30 minutes b efo re the addit ion of 10 ng/ml LP S fo r 6 hours. Gene ex pression of IL6 and CCL2 were measur ed by RT-PCR and the v alu es wer e nor mal ized to GAPDH. Results represent means ± SEM by one way ANOVA followed by Dunnett test.

[1] = Toxicity on macrophages (BMDM), WST-1 assay; format: cell-based, C57BL/6J mice; conditions: C57BL/6J, mouse, bone marrow-derived macrophages (BMDM), read-out: macrophage viability
Protocol: WST-1 assay (Sigma-Aldrich, 5015944001) was used to determine the toxicity of the synthesized compounds on BMDM and HCT116 (ATCC, CCL-247), kindly provided by Dr. Nadine Darwiche, Department of Biochemistry and Molecular Genetics, American University of Beirut, Lebanon. Briefly, macrophages (50,000 cells per well) and HCT116 (20,000 cells per well) were plated in a 96-well plate in RPMI 1640 culture medium containing 10% fetal bovine serum (FBS) and grown for 24 h. Cells (in triplicates) were treated with 10 or 50 μM of the compounds for macrophages, and 50 or 100 μM for HCT116. Culture medium without cells and cells without treatment were used as basal and maximal activity, respectively. Results were expressed as percentage of cells without treatment.
F i g u re S1: E ff e c t of fluorin at ed benzofuran derivatives on m acrophages
viabilit y. C ells in cub at ed with 10 and 50 μM of benzofuran d eri vativ es
(compounds 1 to 9) bel onging to groups І, II, III and IV for 24 hours. Cell
viabilit y w as det ermin ed by WST-1 assay. Non-t r eated m acrophages wer e used
as cont rol. Results were shown as mean ± SEM (n=3) . *p< 0.05 comp ar ed to the
vehicle –treated cells (basal), one-way ANOVA followed by Dunnett’s test.
(1 picture or pasted object on this page, not shown here)

Bcl-2 = Bcl-2 protein expression in HCT116 (Western blot); format: cell-based, human; conditions: 10, 25 and 50 µM, 72 h
Protocol: as §1

Question: With COC(=O)/C=C1/Oc2ccc(Br)cc2C1(F)F [Compound 1] as the compound, how does the “protein level of cleaved PARP-1” value (PARP-1) read?
Answer: increase

Question: And the “effect on CCL2 mRNA levels” value (CCL2 mRNA)?
Answer: decreased significantly

Question: What about the viability at 24 h, 50 µM [1] of the same compound?
Answer: 50%

Question: And the “expression of antiapoptotic protein Bcl-2” value (Bcl-2)?
Answer: decreased

Question: With O=C(O)/C=C1/Oc2ccc(Br)cc2C1(F)F [Compound 2] as the compound, how does the “protein level of cleaved PARP-1” value (PARP-1) read?
Answer: increase

Question: And the “effect on CCL2 mRNA levels” value (CCL2 mRNA)?
Answer: decreased significantly

Question: And the “expression of antiapoptotic protein Bcl-2” value (Bcl-2)?
Answer: decreased
